Key:
[1] = tested on: cardiac troponin in cardiomyocytes / ventricle myocytes; assay: Dephosphorylation of cardiac troponin in cardiomyocytes; format: cell-based
Description: FTY720 is a structural analogue of sphingosine-1 and C2/C6-ceramide. […] Therefore, like C2- and C6-ceramides, FTY720 can serve as a β-blocker competitor for ischemic heart diseases including angina and systolic heart failure. The anti-(β) adrenergic effect of FTY720 is through activation of Pak1 in the heart. Our current observation further enforced by our previous work on Pak1 function related to heart diseases. Our studies also indicate that even better drug candidates can be designed or screened by testing their effects on Pak1 activation or inhibition using C2/C6 ceramides and FTY720 as prototypes.

T-cells = settings: O'Byrne 2000; cited from earlier work
[2] = biological target: T1, Pak1 purified from cardiac muscle (Bos taurus, UniProt Q08E52); assay: Pak1 kinase assay (autophosphorylation, [γ32P] ATP, autoradiography); format: biochemical, bovine; settings: for autophosphorylation of Pak1: concentration not given
T1 construct: from tissue; host or cells: bovine ventricle (cardiac) muscle
Method: Preparation of Muscle Sample. Frozen bovine ventricle muscle (200 g) was cut into small pieces and homogenized in a blender containing 1 liter homogenization buffer (50 mM Tris base, 5 mM EDTA, 2 mM EGTA, 1 mM DTT, 0.5 mM benzamidine, 0.1 mM PMSF, pH 7.2). The homogenized muscle sample was centrifuged at 4500 g for 30 minutes. The supernatant fraction was saved and precipitated with ammonium sulfate (NH4)2SO4 at concentration 25% and 50% (w/v). Precipitates formed by (NH4)2SO4 addition between concentration 25% (w/v) and 50% (w/v) were saved and dialyzed against the homogenization buffer. After dialysis, the sample was filtered and lyophilized. For purification of Pak1 from smaller amounts of sample, the tissues or cells were homogenized in mammalian extraction buffer (50 mM Tris, pH 7.5; 150 mM NaCl; 0.1% Nonide P40; Complete Protease inhibitor cocktail tablets [Roche Diagnostics, cat # 11 873 580 001]). The ratio of tissue:buffer was about 1:5 (v/v). The homogenate was centrifuged in a bench-top centrifuge at 4° C. The supernatant fraction was saved for direct application onto the affinity column.
Affinity Chromatography. The column was first washed with 20 ml equilibration buffer (20 mM Tris, pH 7.5; 0.1 M NaCl; 0.1 mM EDTA). Decoy peptide (3 mg) was applied to the column to saturate the matrix with the peptide. The muscle sample (the lyophilized extract) was dissolved in buffer (20 mM Tris, pH 7.5; 0.1 M NaCl; 0.1 mM EDTA) containing protease inhibitor cocktail tablets. The sample was loaded onto the affinity column and then washed with 20 ml washing buffer (20 mM Tris, pH 7.5; 0.1 M NaCl; 0.1 mM EDTA; 0.05% Tween-20). The Pak1 bound to the gel was eluted with equilibration buffer containing HA peptide ([…]) (SEQ ID NO: 2) at 1 mg/ml. HA peptide was removed from the sample by dialysis in buffer containing 20 mM HEPES, 5 mM NaCl, pH 7.2. The bound Pak1 could also be eluted with 5 ml glycine buffer, pH 2.5 (50 mM glycine-HCl; 0.1% Triton X-100; 0.15 M NaCl).
Kinase Assay. Pak1 kinase activity was assayed in the following reaction buffer: 50 mM HEPES, pH 7.3, 10 mM MgCl2, 1 mM DTT, 0.05% Triton X-100) with 10 μCi of [γ32P] ATP (Perkin Elma. [γ-32P]-Adenosine 5′-triphosphate, Specific Activity: 3000 Ci (111TBq)/mmole, 50 mM Tricine (pH 7.6), Concentration: 5 mCi/mL, Catal NEG502H250UC) at 37° C. for 2 h. The kinase reaction was stopped by adding SDS sample buffer followed by boiling for 5 min. In view of reports of sphingosine-1 inducing an increase in Pak1 and Pak2 activity in vitro (Bokoch 1998, p 8137-8144; Roig 2001, p 195-199), the effect of sphingosine and sphingosine-1 phosphate on Pak1 autophosphorylation was also tested (FIG. 3A). The tested agonists (obtained from Calbiochem) included the following: C2 ceramide (N-acetyl-D-erythro-sphingosine), C6 ceramide (N-Hexanoyl-D-erythro-sphingosine) and safingol (Dihydro-L-threo-sphingosine). D-sphingosine (S 6879) and sphingosine 1-phosphate (S 9666) were purchased from Sigma. Sphingosines were dissolved in DMSO. The total reaction volume was 20 μl. DMSO (2 μl) was included in each reaction including the control. Incorporation of 32P from gamma 32P into Pak1 was directly detected by autoradiography after resolve the in vitro reaction products on SDS PAGE. […] When the sphingosine phosphate concentration increased to 100 and 200 μM, there was an increase in Pak1 autophosphorylation. In purified Pak1 sample, a 48 kD Pak1 degradation products can sometimes be detected (FIG. 1A, lane 3). When Pak1 activity increased, phosphorylation of the degradation products increased accordingly (FIG. 3).
Autophosphorylation of Pak1, which correlates with its activity, provided a measure of Pak-1 enzyme function. […] In all the in vitro assays, we used 4 μg of Pak1 protein. The smaller band (˜48 kD) that could be Pak1 degradation products was also phosphorylated. […] The decoy peptide contains Pak1 autophosphorylation sites. […]

heart = settings: Furuya 2001; Lecour 2006; cited from earlier work
PP2A = settings: Dobrowsky 1993; cited from earlier work
L-type Ca2+ channel = settings: different types of cells; Chik 1999, 2004; cited from earlier work
heart rate = settings: same or lower dose than used in clinical studies for organ transplantation and multiple sclerosis; cited from earlier work
[3] = biological target: T2, decoy peptide (YNSKKTSNSQKYMSFTDKSA) (amino acids 131-150 of SEQ ID NO: 1)
T2 chain: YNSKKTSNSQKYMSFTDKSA

T1 sequence (Q08E52 whole entry): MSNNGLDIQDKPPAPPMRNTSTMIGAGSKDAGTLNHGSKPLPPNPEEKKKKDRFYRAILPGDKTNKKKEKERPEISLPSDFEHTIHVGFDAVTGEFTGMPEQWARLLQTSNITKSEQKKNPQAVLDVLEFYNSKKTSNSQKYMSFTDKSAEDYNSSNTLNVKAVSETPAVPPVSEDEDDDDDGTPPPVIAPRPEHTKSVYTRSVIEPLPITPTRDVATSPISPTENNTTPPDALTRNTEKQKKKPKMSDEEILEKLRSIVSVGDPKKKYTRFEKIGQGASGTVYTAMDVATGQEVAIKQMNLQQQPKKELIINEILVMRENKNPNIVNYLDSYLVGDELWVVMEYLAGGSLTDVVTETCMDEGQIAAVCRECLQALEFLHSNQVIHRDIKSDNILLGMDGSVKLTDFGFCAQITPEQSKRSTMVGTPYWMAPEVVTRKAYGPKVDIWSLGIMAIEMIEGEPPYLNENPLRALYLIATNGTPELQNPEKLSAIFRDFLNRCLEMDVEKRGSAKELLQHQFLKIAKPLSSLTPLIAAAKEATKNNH

For `CCCCCCCCCCCCC/C=C/[C@@H](O)[C@H](CO)NC(C)=O` [C2 ceramide, N-acetyl-D-erythro-sphingosine], the “dephosphorylation of cardiac troponin in cardiomyocytes” value [1] is given as “induces dephosphorylation”, the “proliferation of T-cells stimulated by growth signals” value (T-cells) is given as “inhibited proliferation” and the “effect activating Pak1 compared with sphingosine-1” value [2] is given as “stronger effect than sphingosine-1”. The “autophosphorylation of Pak1” value ([2]; 37° C., 2 h) was “highly responsive”, the “pre-conditioning effects in heart” value (heart) was “pre-conditioning effects” and the PP2A activation (PP2A) was “known activator”. For the same molecule, the “L-type Ca2+ channel activity” value (L-type Ca2+ channel) was “depressed”.

In the case of `CCCCCCCCCCCCC/C=C/[C@@H](O)[C@H](CO)NC(=O)CCCCC` [C6 ceramide, N-Hexanoyl-D-erythro-sphingosine], the “dephosphorylation of cardiac troponin in cardiomyocytes” value [1] is reported as “induces dephosphorylation”, the “effect activating Pak1 compared with sphingosine-1” value [2] is reported as “stronger effect than sphingosine-1” and the “autophosphorylation of Pak1” value ([2]; 37° C., 2 h) is reported as “highly responsive”.

For `CCCCCCCCCCCCC/C=C/[C@@H](O)[C@@H](N)CO` [D-Sphingosine-1, D-erythro-sphingosine], the “Autophosphorylation of the purified Pak1” value ([2]; in the presence of 50 and 100 μM, 37° C., 2 h) was “increased”.

For `CCCCCCCCc1ccc(CCC(N)(CO)CO)cc1` [FTY720, fingolimod], the “cardiac effect (heart rate)” value (heart rate) is listed as “decrease of heart rate”.

With `CCCCCCCCCCCCCCC[C@H](O)[C@@H](N)CO` [saphingol, Dihydro-L-threo-sphingosine] the “autophosphorylation of Pak1” value ([2]; 37° C., 2 h) was “only slightly regulated” and the “autophosphorylation of Pak1” value ([2]; 37° C., 2 h, listed as Saphingosine) was “small stimulatory effect”.

With `CCCCCCCCCCCCC/C=C/[C@@H](O)[C@@H](N)COP(=O)(O)O` [sphingosine-1 phosphate, sphingosine 1-phosphate] the “effect on autophosphorylation of Pak1” value ([2]; at 25 and 50 μM, 37° C., 2 h) was “no significant effect” and the Pak1 autophosphorylation ([2]; at 100 and 200 μM, 37° C., 2 h) was “increase”.

In the case of YNSKKTSNSQKYMSFTDKSA [decoy peptide], the “autophosphorylation of Pak1” value ([2]; 37° C., 2 h) is reported as “slightly inhibited” and the “total kinase activity in the presence of the decoy peptide” value ([2]; data not shown) is reported as “slight increase”.

B1: Pak1 purified from bovine ventricle muscle (p21 activated kinase-1) (protein)
chain: SNNGLDIQDKPPAPPMRNTSTMIGAGSKDAGTLNHGSKPLPPNPEEKKKKDRFYRAILPGDKTNKKKEKERPEISLPSDFEHTIHVGFDAVTGEFTGMPEQWARLLQTSNITKSEQKKNPQAVLDVLEFYNSKKTSNSQKYMSFTDKSAEDYNSSNTLNVKAVSETPAVPPVSEDEDDDDDGTPPPVIAPRPEHTKSVYTRSVIEPLPITPTRDVATSPISPTENNTTPPDALTRNTEKQKKKPKMSDEEILEKLRSIVSVGDPKKKYTRFEKIGQGASGTVYTAMDVATGQEVAIKQMNLQQQPKKELIINEILVMRENKNPNIVNYLDSYLVGDELWVVMEYLAGGSLTDVVTETCMDEGQIAAVCRECLQALEFLHSNQVIHRDIKSDNILLGMDGSVKLTDFGFCAQITPEQSKRSTMVGTPYWMAPEVVTRKAYGPKVDIWSLGIMAIEMIEGEPPYLNENPLRALYLIATNGTPELQNPEKLSAIFRDFLNRCLEMDVEKRGSAKELLQHQFLKIAKPLSSLTPLIAAAKEATKNNH
For B1, the “autophosphorylation of Pak1” value [3] was “The decoy peptide slightly inhibited autophosphorylation of Pak1”.

Reference: patent publication US20110152221A1, “PAK1 Agonists and Methods of Use” (THE BOARD OF TRUSTEES OF THE UNIVERSITY OF ILLINOIS, priority 2008, published 2011)
